{"source": "ChEMBL document CHEMBL3739362", "about": "“Brominated Variant of the Lantibiotic NAI-107 with Enhanced Antibacterial Potency” (2015)", "assay_type_in_all_cases": "functional", "key": {"Streptococcus pyogenes": {"test_system": "Streptococcus pyogenes", "assay": "Antibacterial activity against Streptococcus pyogenes L49 by broth microdilution assay"}, "Enterococcus faecalis [1]": {"test_system": "Enterococcus faecalis", "assay": "Antibacterial activity against vancomycin-resistant Enterococcus faecalis L560 by broth microdilution assay"}, "Staphylococcus aureus [2]": {"test_system": "Staphylococcus aureus", "assay": "Antibacterial activity against glycopeptide-intermediate Staphylococcus aureus L3797 by broth microdilution assay"}, "Enterococcus faecium": {"test_system": "Enterococcus faecium", "assay": "Antibacterial activity against vancomycin-resistant Enterococcus faecium L569 by broth microdilution assay"}, "Enterococcus faecalis [3]": {"test_system": "Enterococcus faecalis", "assay": "Antibacterial activity against Enterococcus faecalis L559 by broth microdilution assay"}, "Streptococcus pneumoniae [4]": {"test_system": "Streptococcus pneumoniae", "assay": "Antibacterial activity against Streptococcus pneumoniae L44 by broth microdilution assay"}, "Staphylococcus aureus [5]": {"test_system": "Staphylococcus aureus", "assay": "Antibacterial activity against glycopeptide-intermediate Staphylococcus aureus L3798 by broth microdilution assay"}, "Streptococcus pneumoniae [6]": {"test_system": "Streptococcus pneumoniae", "assay": "Antibacterial activity against Streptococcus pneumoniae ATCC 49619 by broth microdilution assay"}}, "data": [{"smiles": "CN[C@@H](CC(C)C)C(=O)N[C@H]1C(=O)N[C@@H](CC(N)=O)C(=O)N[C@H]2C(=O)N[C@H]3C(=O)N[C@H](C(=O)N[C@@H](C(=O)O)c4cc(O)cc(O)c4-c4cc3ccc4O)[C@H](O)c3ccc(c(Cl)c3)Oc3cc2cc(c3O[C@H]2O[C@@H](CO)[C@H](O)[C@@H](O)[C@@H]2O[C@@H]2C[C@@](C)(N)[C@@H](O)[C@@H](C)O2)Oc2ccc(cc2Cl)[C@H]1O", "values": [{"measurement": "MIC", "setting": "Streptococcus pyogenes", "result": 0.5, "unit": "µg/mL"}, {"measurement": "MIC", "setting": "Enterococcus faecalis [1]", "result": "> 64", "unit": "µg/mL"}, {"measurement": "MIC", "setting": "Staphylococcus aureus [2]", "result": 8, "unit": "µg/mL"}, {"measurement": "MIC", "setting": "Enterococcus faecium", "result": "> 64", "unit": "µg/mL"}, {"measurement": "MIC", "setting": "Enterococcus faecalis [3]", "result": 1, "unit": "µg/mL"}, {"measurement": "MIC", "setting": "Streptococcus pneumoniae [4]", "result": 0.5, "unit": "µg/mL"}, {"measurement": "MIC", "setting": "Staphylococcus aureus [5]", "result": 16, "unit": "µg/mL"}, {"measurement": "MIC", "setting": "Streptococcus pneumoniae [6]", "result": 0.25, "unit": "µg/mL"}]}]}
